Experimental data published in US12077503B2, “Substituted cyclic amides and their use as herbicides” (FMC CORPORATION, priority 2015, dated 2024).

Assays:
Type in all cases: in vivo
Kochia (Kochia scoparia) [1] = assay: Test A preemergence; details: Bassia scoparia, pre-emergence, 240 h, 0 to 100 scale where 0 is no effect and 100 is complete control, read-out: Kochia plant response rating
Summary of the method: (§1)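 Ratings of 0 (no effect) to 100 (complete control) come from visual comparison with untreated controls roughly 10 d after treatment. Test chemicals, formulated in a non-phytotoxic solvent mixture with surfactant, were applied either as a preemergence directed soil spray on seeded soil or postemergence to one- to two-leaf plants 2 to 10 cm tall.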

[2] = tested on: barnyardgrass (Echinochloa crus-galli); assay: Test A preemergence; details: Echinochloa crus-galli, pre-emergence, 240 h, 0 to 100 scale where 0 is no effect and 100 is complete control, read-out: Barnyardgrass plant response rating
Summary of the method: as §1

[3] = tested on: giant foxtail (Setaria faberii); assay: Test A preemergence; details: Setaria faberi, pre-emergence, 240 h, 0 to 100 scale where 0 is no effect and 100 is complete control, read-out: Foxtail, Giant plant response rating
Summary of the method: as §1

[4] = tested on: pigweed (Amaranthus retroflexus); assay: Test A preemergence; details: Amaranthus retroflexus, pre-emergence, 240 h, 0 to 100 scale where 0 is no effect and 100 is complete control, read-out: Pigweed plant response rating
[5] = tested on: ragweed (common ragweed, Ambrosia elatior); assay: Test A preemergence; details: Ambrosia artemisiifolia, pre-emergence, 240 h, 0 to 100 scale where 0 is no effect and 100 is complete control, read-out: Ragweed plant response rating
Summary of the method: as §1

[6] = tested on: ryegrass, Italian (Italian ryegrass, Lolium multiflorum); assay: Test A preemergence; details: Lolium multiflorum, pre-emergence, 240 h, 0 to 100 scale where 0 is no effect and 100 is complete control, read-out: Ryegrass, Italian plant response rating
Summary of the method: as §1

[7] = tested on: Galium (catchweed bedstraw, Galium aparine); assay: Test A postemergence; details: Galium, post-emergence, 240 h
Summary of the method: as §1

Kochia (Kochia scoparia) [8] = assay: Test A postemergence; details: Bassia scoparia, post-emergence, 240 h
Summary of the method: as §1

[9] = tested on: barnyardgrass (Echinochloa crus-galli); assay: Test A postemergence; details: Echinochloa crus-galli, post-emergence, 240 h
Summary of the method: as §1

[10] = tested on: blackgrass (Alopecurus myosuroides); assay: Test A postemergence; details: Alopecurus myosuroides, post-emergence, 240 h
Summary of the method: as §1

corn (Zea mays) = assay: Test A postemergence; details: Zea mays, post-emergence, 240 h
Summary of the method: as §1

[11] = tested on: giant foxtail (Setaria faberii); assay: Test A postemergence; details: Setaria faberi, post-emergence, 240 h
Summary of the method: as §1

[12] = tested on: pigweed (Amaranthus retroflexus); assay: Test A postemergence; details: Amaranthus retroflexus, post-emergence, 240 h, 125 g ai/ha, postemergence, visual injury vs untreated controls after approx. 10 d; 0 = no effect, 100 = complete control; read-out: Pigweed plant response rating (0 to 100 scale)
Summary of the method: as §1

[13] = tested on: ragweed (common ragweed, Ambrosia elatior); assay: Test A postemergence; details: Ambrosia artemisiifolia, post-emergence, 240 h, 125 g ai/ha, postemergence, visual injury vs untreated controls after approx. 10 d; 0 = no effect, 100 = complete control; read-out: Ragweed plant response rating (0 to 100 scale)
Summary of the method: as §1

[14] = tested on: ryegrass, Italian (Italian ryegrass, Lolium multiflorum); assay: Test A postemergence; details: Lolium multiflorum, post-emergence, 240 h, 125 g ai/ha, postemergence, visual injury vs untreated controls after approx. 10 d; 0 = no effect, 100 = complete control; read-out: Ryegrass, Italian plant response rating (0 to 100 scale)
Summary of the method: as §1

[15] = tested on: wheat (Triticum aestivum); assay: Test A postemergence; details: Triticum aestivum, post-emergence, 240 h, 125 g ai/ha, postemergence, visual injury vs untreated controls after approx. 10 d; 0 = no effect, 100 = complete control; read-out: Wheat plant response rating (0 to 100 scale)
Summary of the method: as §1

[16] = tested on: barnyardgrass (Echinochloa crus-galli); assay: Test B flooded paddy test; details: Echinochloa crus-galli, 250 g ai/ha, Flood; 0 to 100 scale where 0 is no effect and 100 is complete control; read-out: Barnyardgrass plant response rating
Summary of the method: (§2)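 Percent control, visually estimated after 13–15 d in the greenhouse on a 0–100 basis, compares treated pots with untreated ones; compound was put into paddy water 3 cm above the soil when plants had two leaves.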

[17] = tested on: ducksalad (Heteranthera limosa); assay: Test B flooded paddy test; details: Heteranthera limosa, 250 g ai/ha, Flood; 0 to 100 scale where 0 is no effect and 100 is complete control; read-out: Ducksalad plant response rating
Summary of the method: as §2

rice (Oryra sativa) = assay: Test B flooded paddy test; details: Oryza sativa, 250 g ai/ha, Flood; 0 to 100 scale where 0 is no effect and 100 is complete control; read-out: Rice plant response rating
Summary of the method: as §2

[18] = tested on: sedge, umbrella (small-flower umbrella sedge, Cyperus difformis); assay: Test B flooded paddy test; details: Cyperus difformis, 250 g ai/ha, Flood; 0 to 100 scale where 0 is no effect and 100 is complete control; read-out: Sedge, Umbrella plant response rating
Summary of the method: as §2

[19] = 125 g ai/ha, preemergence, approx. 10 d

Structure (SMILES): CN1CC[C@H](c2ccc3c(c2)OC(F)(F)O3)[C@@H](C(=O)Nc2cccc(Cl)c2F)C1=O [Compound 1174]
- pest or weed control at 31 g/ha (Kochia (Kochia scoparia) [1]; 31 g ai/ha, Preemergence): 0%
- pest or weed control at 125 g/ha (Kochia (Kochia scoparia) [1]; [19]): 0%
- pest or weed control at 31 g/ha ([2]; 31 g ai/ha, Preemergence): 80%
- pest or weed control at 125 g/ha [2, 19]: 100%
- pest or weed control at 31 g/ha ([3]; 31 g ai/ha, Preemergence): 80%
- pest or weed control at 125 g/ha [3, 19]: 90%
- pest or weed control at 31 g/ha ([4]; 31 g ai/ha, Preemergence): 0%
- pest or weed control at 125 g/ha [4, 19]: 0%
- pest or weed control at 31 g/ha ([5]; 31 g ai/ha, Preemergence): 0%
- pest or weed control at 125 g/ha [5, 19]: 0%
- pest or weed control at 31 g/ha ([6]; 31 g ai/ha, Preemergence): 0%
- pest or weed control at 125 g/ha [6, 19]: 40%
- pest or weed control at 125 g/ha ([7]; 125 g ai/ha, postemergence, visual injury vs untreated controls after approx. 10 d, 0 = no effect, 100 = complete control, read-out: Galium plant response rating (0 to 100 scale)): 0%
- pest or weed control at 31 g/ha ([7]; Postemergence, 31 g ai/ha, visual injury after approx. 10 d, 0 to 100 scale, 0 no effect, 100 complete control, read-out: Plant response rating, Galium): 0%
- pest or weed control at 125 g/ha (Kochia (Kochia scoparia) [8]; 125 g ai/ha, postemergence, visual injury vs untreated controls after approx. 10 d, 0 = no effect, 100 = complete control, read-out: Kochia plant response rating (0 to 100 scale)): 0%
- pest or weed control at 31 g/ha (Kochia (Kochia scoparia) [8]; Postemergence, 31 g ai/ha, visual injury after approx. 10 d, 0 to 100 scale, 0 no effect, 100 complete control, read-out: Plant response rating, Kochia): 0%
- pest or weed control at 125 g/ha ([9]; 125 g ai/ha, postemergence, visual injury vs untreated controls after approx. 10 d, 0 = no effect, 100 = complete control, read-out: Barnyardgrass plant response rating (0 to 100 scale)): 70%
- pest or weed control at 31 g/ha ([9]; Postemergence, 31 g ai/ha, visual injury after approx. 10 d, 0 to 100 scale, 0 no effect, 100 complete control, read-out: Plant response rating, Barnyardgrass): 70%
- pest or weed control at 125 g/ha ([10]; 125 g ai/ha, postemergence, visual injury vs untreated controls after approx. 10 d, 0 = no effect, 100 = complete control, read-out: Blackgrass plant response rating (0 to 100 scale)): 0%
- pest or weed control at 31 g/ha ([10]; Postemergence, 31 g ai/ha, visual injury after approx. 10 d, 0 to 100 scale, 0 no effect, 100 complete control, read-out: Plant response rating, Blackgrass): 0%
- plant injury at 125 g/ha (corn (Zea mays); 125 g ai/ha, postemergence, visual injury vs untreated controls after approx. 10 d, 0 = no effect, 100 = complete control, read-out: Corn plant response rating (0 to 100 scale)): 50%
- Corn plant response rating (crop injury, 0 = no effect, 100 = complete kill) at 31 g/ha (corn (Zea mays); Postemergence, 31 g ai/ha, visual injury after approx. 10 d, 0 to 100 scale, 0 no effect, 100 complete control): 0%
- pest or weed control at 125 g/ha ([11]; 125 g ai/ha, postemergence, visual injury vs untreated controls after approx. 10 d, 0 = no effect, 100 = complete control, read-out: Foxtail, Giant plant response rating (0 to 100 scale)): 80%
- pest or weed control at 31 g/ha ([11]; Postemergence, 31 g ai/ha, visual injury after approx. 10 d, 0 to 100 scale, 0 no effect, 100 complete control, read-out: Plant response rating, Foxtail, Giant): 40%
- pest or weed control at 125 g/ha [12]: 0%
- pest or weed control at 125 g/ha [13]: 0%
- pest or weed control at 125 g/ha [14]: 0%
- plant injury at 125 g/ha [15]: 30%
- pest or weed control at 250 g/ha [16]: 70%
- pest or weed control at 250 g/ha [17]: 90%
- pest or weed control at 250 g/ha (rice (Oryra sativa)): 20%
- pest or weed control at 250 g/ha [18]: 0%
